In PubChem BioAssay (NCI):
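Step 1: Grow cells in 96-well plates. Step 2: Expose to compound for 48 hours at 5 concentrations. Step 3: Interpolate endpoints linearly; if unreached, use highest concentration. TGI is the concentration that stops growth completely.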

Columns and labels:
Assay in all cases: NCI anticancer screen, dose series, 48 h
786-0 renal = system: 786-0 renal
A498 renal = system: A498 renal
A549 NSCLC = system: A549 NSCLC
ACHN renal = system: ACHN renal
CAKI-1 renal = system: CAKI-1 renal
CCRF-CEM leukemia = system: CCRF-CEM leukemia
DLD-1 colon = system: DLD-1 colon
DMS 273 small cell lung = system: DMS 273 small cell lung
HCC-2998 colon = system: HCC-2998 colon
HCT-15 colon = system: HCT-15 colon
HL-60(TB) leukemia = system: HL-60(TB) leukemia
HOP-18 NSCLC = system: HOP-18 NSCLC
HOP-62 NSCLC = system: HOP-62 NSCLC
HOP-92 NSCLC = system: HOP-92 NSCLC
HT29 colon = system: HT29 colon
IGROV1 ovarian = system: IGROV1 ovarian
KM12 colon = system: KM12 colon
LXFL 529 NSCLC = system: LXFL 529 NSCLC
M14 melanoma = system: M14 melanoma
M19-MEL melanoma = system: M19-MEL melanoma
MALME-3M melanoma = system: MALME-3M melanoma
MOLT-4 leukemia = system: MOLT-4 leukemia
NCI-H23 lung = system: NCI-H23 lung
NCI-H460 lung = system: NCI-H460 lung
NCI-H522 lung = system: NCI-H522 lung
OVCAR-3 ovarian = system: OVCAR-3 ovarian
OVCAR-5 ovarian = system: OVCAR-5 ovarian
OVCAR-8 ovarian = system: OVCAR-8 ovarian
RXF 393 renal = system: RXF 393 renal
RXF-631 renal = system: RXF-631 renal
SF-295 CNS = system: SF-295 CNS
SK-MEL-2 melanoma = system: SK-MEL-2 melanoma
SK-MEL-28 melanoma = system: SK-MEL-28 melanoma
SK-MEL-5 melanoma = system: SK-MEL-5 melanoma
SK-OV-3 ovarian = system: SK-OV-3 ovarian
SN12C renal = system: SN12C renal
TK-10 renal = system: TK-10 renal
U251 CNS = system: U251 CNS
UACC-257 melanoma = system: UACC-257 melanoma
UO-31 renal = system: UO-31 renal
COLO 205 colon = system: COLO 205 colon
DMS 114 small cell lung = system: DMS 114 small cell lung
EKVX NSCLC = system: EKVX NSCLC
HCT-116 colon = system: HCT-116 colon
K-562 leukemia = system: K-562 leukemia
KM20L2 colon = system: KM20L2 colon
RPMI-8226 leukemia = system: RPMI-8226 leukemia
SF-268 CNS = system: SF-268 CNS
SF-539 CNS = system: SF-539 CNS
SNB-19 CNS = system: SNB-19 CNS
SNB-75 CNS = system: SNB-75 CNS
SNB-78 CNS = system: SNB-78 CNS
SW-620 colon = system: SW-620 colon
UACC-62 melanoma = system: UACC-62 melanoma
XF 498 CNS = system: XF 498 CNS

Compound `CCN(CC)CCCC(C)Nc1c2cc(OC)cc(C)c2nc2c(C)c(Cl)ccc12` (centres undefined) has a TGI (786-0 renal) of 3.02 µM, a TGI (A498 renal) of 6.3 µM and a TGI (A549 NSCLC) of 3.31 µM. It also gave a TGI (ACHN renal) of 3.09 µM, a TGI (CAKI-1 renal) of 4.81 µM and a TGI (CCRF-CEM leukemia) of 3.25 µM. The TGI (DLD-1 colon) was 2.93 µM, the TGI (DMS 273 small cell lung) was 3.14 µM and the TGI (HCC-2998 colon) was 3.03 µM. The TGI (HCT-15 colon) was 3.2 µM, the TGI (HL-60(TB) leukemia) was 4.26 µM and the TGI (HOP-18 NSCLC) was 2.91 µM. For the same compound, the TGI (HOP-62 NSCLC) was 3.08 µM, the TGI (HOP-92 NSCLC) was 3.22 µM and the TGI (HT29 colon) was 3.03 µM. It also gave a TGI (IGROV1 ovarian) of 3.09 µM, a TGI (KM12 colon) of 2.99 µM and a TGI (LXFL 529 NSCLC) of 2.98 µM. For the same compound, the TGI (M14 melanoma) was 3.68 µM, the TGI (M19-MEL melanoma) was 3.13 µM and the TGI (MALME-3M melanoma) was 3.52 µM. The TGI (MOLT-4 leukemia) was 3.26 µM, the TGI (NCI-H23 lung) was 2.82 µM and the TGI (NCI-H460 lung) was 3.32 µM. The TGI (NCI-H522 lung) was 3.06 µM, the TGI (OVCAR-3 ovarian) was 3.27 µM and the TGI (OVCAR-5 ovarian) was 3.92 µM. It also gave a TGI (OVCAR-8 ovarian) of 3.19 µM, a TGI (RXF 393 renal) of 3.54 µM and a TGI (RXF-631 renal) of 3.23 µM. It also gave a TGI (SF-295 CNS) of 3.71 µM, a TGI (SK-MEL-2 melanoma) of 3.44 µM and a TGI (SK-MEL-28 melanoma) of 3.39 µM. The TGI (SK-MEL-5 melanoma) was 3.28 µM, the TGI (SK-OV-3 ovarian) was 3.06 µM and the TGI (SN12C renal) was 2.93 µM. For the same compound, the TGI (TK-10 renal) was 3.19 µM, the TGI (U251 CNS) was 3.26 µM and the TGI (UACC-257 melanoma) was 3.31 µM. For the same compound, the TGI (UO-31 renal) was 3.1 µM.
For `Cn1cc2ccccc2c1-c1nc(F)nc(Oc2ccc3c(c2)CC[C@@H]2C3CC[C@@]3(C)C2C[C@H](O)[C@@H]3O)n1` (some centres undefined), the TGI (786-0 renal) was 31.3 µM, the TGI (A498 renal) was 47 µM and the TGI (A549 NSCLC) was 34.1 µM. The TGI (ACHN renal) was 47.6 µM, the TGI (CAKI-1 renal) was 34.8 µM and the TGI (CCRF-CEM leukemia) was 6.43 µM. It also gave a TGI (COLO 205 colon) of 32.4 µM, a TGI (DLD-1 colon) of 22.1 µM and a TGI (DMS 114 small cell lung) of 25 µM. For the same compound, the TGI (DMS 273 small cell lung) was 22 µM, the TGI (EKVX NSCLC) was 40.7 µM and the TGI (HCC-2998 colon) was 29.9 µM. It also gave a TGI (HCT-116 colon) of 28.1 µM, a TGI (HCT-15 colon) of 24.6 µM and a TGI (HL-60(TB) leukemia) of 43.7 µM. For the same compound, the TGI (HOP-18 NSCLC) was 54.8 µM, the TGI (HOP-62 NSCLC) was 18.7 µM and the TGI (HOP-92 NSCLC) was 55.5 µM. The TGI (HT29 colon) was 40.5 µM, the TGI (IGROV1 ovarian) was 45.4 µM and the TGI (K-562 leukemia) was 42.8 µM. For the same compound, the TGI (KM12 colon) was 36.1 µM, the TGI (KM20L2 colon) was 29.4 µM and the TGI (LXFL 529 NSCLC) was 27.4 µM. It also gave a TGI (M14 melanoma) of 32.2 µM, a TGI (M19-MEL melanoma) of 41.9 µM and a TGI (MALME-3M melanoma) of 75.4 µM. It also gave a TGI (MOLT-4 leukemia) of 26.1 µM, a TGI (NCI-H23 lung) of 42.9 µM and a TGI (NCI-H460 lung) of 83 µM. It also gave a TGI (NCI-H522 lung) of 27.2 µM, a TGI (OVCAR-3 ovarian) of 78.8 µM and a TGI (OVCAR-5 ovarian) of 39.2 µM. It also gave a TGI (OVCAR-8 ovarian) of 34.1 µM, a TGI (RPMI-8226 leukemia) of 41.9 µM and a TGI (RXF 393 renal) of 66.6 µM. It also gave a TGI (SF-268 CNS) of 36.8 µM, a TGI (SF-295 CNS) of 33.9 µM and a TGI (SF-539 CNS) of 28.9 µM. It also gave a TGI (SK-MEL-2 melanoma) of 38.1 µM, a TGI (SK-MEL-28 melanoma) of 38.9 µM and a TGI (SK-MEL-5 melanoma) of 36.8 µM. For the same compound, the TGI (SK-OV-3 ovarian) was 52.2 µM, the TGI (SN12C renal) was 31.6 µM and the TGI (SNB-19 CNS) was 29.5 µM. It also gave a TGI (SNB-75 CNS) of 41.1 µM, a TGI (SNB-78 CNS) of 54.2 µM and a TGI (SW-620 colon) of 15.8 µM. It also gave a TGI (TK-10 renal) of 54.6 µM, a TGI (U251 CNS) of 23.5 µM and a TGI (UACC-257 melanoma) of 81.6 µM. For the same compound, the TGI (UACC-62 melanoma) was 40.6 µM, the TGI (UO-31 renal) was 32.3 µM and the TGI (XF 498 CNS) was 60.3 µM.
